From patent publication US5242945A, “Tetronic and thiotetronic acid derivatives as phospholipase A2 inhibitors” (American Home Products Corporation, priority 1991, dated 1993) come the findings set out here.

As a reminder, the inhibition is the percentage by which the read-out fell short of the control.

Experiment [1] has as its system TPA-induced ear edema. Briefly: 12-o-tetradecanoylphorbol acetate (TPA)-induced murine ear edema assay. The format is in vivo, mouse (Swiss Webster). Particulars: TPA. An outline of the steps: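 Female Swiss Webster mice (~8 weeks, groups of six) got AA 2 mg/ear or TPA 2 μg/ear topically on the right ear, acetone on the left. Compounds dosed topically or s.c. 30 min before AA or 30 min after TPA. Ear thickness difference measured by caliper at 1 h (AA) or 4 h (TPA), expressed as % change from control.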

The target of experiment [2] is T1, human platelet PLA2 (Homo sapiens, UniProt P14555).
T1 construct: platelet acid extract PLA2; from tissue; host or cells: human platelets, semipurified acid extract
T1 sequence (P14555 21-144): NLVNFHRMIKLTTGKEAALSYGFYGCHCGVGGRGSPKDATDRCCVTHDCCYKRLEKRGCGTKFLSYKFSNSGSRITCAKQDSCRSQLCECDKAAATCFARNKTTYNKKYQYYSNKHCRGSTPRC
Briefly: in vitro isolated phospholipase A2 assay, human platelet PLA2. The format is biochemical. The conditions noted are these: at 10 μM; + values given without explanation; read-out: % Inhibition HP (human platelet). An outline of the steps:
(§1)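 PLA2 from semipurified human platelet acid extract or purified human synovial fluid, preincubated 30 min at room temperature with compound. ³H-arachidonate-labelled E. coli substrate then added in Tris-HCl pH 7.5, with enzyme giving about 12% hydrolysis. Reaction ran 10 min at 37° C; released arachidonic acid recovered on NH2 columns and measured by β-counting.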

In experiment [3] the target is T2, human synovial fluid PLA2 (Homo sapiens, UniProt P14555).
T2 construct: Purified human synovial fluid; from tissue; host or cells: human synovial fluid
T2 sequence (P14555 21-144): T1 sequence (P14555 21-144)
In words: in vitro isolated phospholipase A2 assay, human synovial fluid PLA2. The experiment is classed as biochemical. Particulars: at 10 μM; + values given without explanation; read-out: % Inhibition HSF (human synovial fluid). The method in brief:
as §1

In experiment [4] the test system is 5-lipoxygenase (LTC4). Briefly: resident murine peritoneal macrophage assay, LTC4. The experiment is classed as cell-based, mouse (Swiss Webster). How it is done:
The ability of the compounds of the invention to act as inhibitors of the enzymes 5-lipoxygenase and cyclooxygenase is measured in the resident murine peritoneal macrophage assay.
Resident peritoneal macrophages are collected from female Swiss Webster mice (49 days old, 20-25 gms, Buckshire) by lavaging with 7-8 ml Hanks Balanced Salt Solution (HBSS) without Ca^++ and Mg^++ (GIBCO). The lavage fluid from several mice is pooled and centrifuged at 4° C. for 10 minutes at 400 xg.
Residual serum and cellular debris are removed from the monolayers by washing 3× with 2 ml HBSS containing Ca^++ and Mg^++. Macrophages are preincubated for 5 minutes with 1 ml serum-free M199 containing 10 μl dimethyl sulfoxide (DMSO) vehicle or test compound prior to cell activation with zymosan ([…]) or arachidonic acid (AA) (2 μM). After 2 hours, the supernatants are removed and either assayed for LTC4 and PGE2 by radioimmunoassay (RIA) directly or stored at -20° C. In all cases, results are expressed as ng metabolite/4×10^6 cells.
Raw data (dpm) may be stored directly onto an "Autostart" tape using the HP85 in room C-096. The raw data are converted to ng metabolite/4-10^6cells using the standard curve by a "RIANAL" program (HP85) or a "NONLIN" program (HP9816). Results are then expressed as percent inhibition of zymosan induced, leukotriene or prostaglandin synthesis (control) using the equation: [formula]

The structures appear in SMILES notation.

With `CCCCCCCCCCC/C=C\CCCCC(=O)C1=C(O)CSC1=O` [Example 51, 4-Hydroxy-3-[(Z)-1-oxo-6-octadecenyl]-2(5H)-thiophenone], in experiment [1] (subcutaneous, 50 m/kg, no vehicle on line), the “Subcutaneous % Inhibition at 50 m/kg” value amounted to 76%. For the same molecule, the “Topical % Inhibition at 200 μg” value in experiment [1] (topical, 200 μg, vehicle not given) is reported as 55%. For the same molecule, the inhibition at 10 µM in experiment [2] was found to be 15.2%; in experiment [3], 29.4%. In experiment [4] (Mus musculus, Peritoneal macrophage, zymosan stimulation, 0.1 μM), this molecule returned an inhibition at 0.1 µM of 21.1%. The molecule also yielded an inhibition at 0.5 µM in experiment [4] (Mus musculus, Peritoneal macrophage, zymosan stimulation, 0.5 μM) of 59.4%. In addition, the “LTC4 AA % Inhibition” value in experiment [4] (arachidonic acid stimulation, dose 0.5 (unit not given)) is on record as -4%.
